# Target: CDK2 (human) (UniProt P24941)
# Test: Enzyme Assay
row,SMILES,IC50
1,Cc1cnc(CNC(=O)c2ccc(C(=O)Nc3ccc(-n4cncn4)cc3)s2)cn1,≥ 40 µM
2,O=C(Nc1ccc(-n2cncn2)cc1)c1ccc(C(=O)N2CCN(c3ccccc3)CC2)s1,≥ 40 µM
3,Cc1ccnc(NC(=O)c2ccc(C(=O)Nc3ccc(-n4cncn4)cc3)s2)c1,≥ 40 µM
4,CN(C)CCCNC(=O)c1ccc(C(=O)Nc2ccc(-n3cncn3)cc2)s1,≥ 40 µM
5,O=C(NCCN1CCNC1=O)c1ccc(C(=O)Nc2ccc(-n3cncn3)cc2)s1,≥ 40 µM
6,COc1ccc(NC(=O)c2ccc(C(=O)Nc3ccc(-c4ncn(C)n4)cc3)s2)c(C)c1,≥ 40 µM
7,CN1CCC(NC(=O)c2ccc(C(=O)Nc3ccc(-n4cncn4)cc3)s2)CC1,≥ 40 µM
8,O=C(NC[C@H]1CCCO1)c1ccc(C(=O)Nc2ccc(-n3cncn3)cc2)s1,≥ 40 µM
9,O=C(Nc1ccc(-n2cncn2)cc1)c1ccc(C(=O)Nc2nccs2)s1,≥ 40 µM
10,CN(C(=O)c1ccc(C(=O)Nc2ccc(-n3cncn3)cc2)s1)c1ccccc1,≥ 40 µM
11,CC(C)CNC(=O)c1ccc(C(=O)Nc2ccc(-n3cncn3)cc2)s1,≥ 40 µM
12,COc1ccc(NC(=O)c2ccc(C(=O)Nc3ccc(N4CCN(C)CC4)cc3)s2)c(C)c1,≥ 40 µM
13,O=C(Nc1ccc(-n2cncn2)cc1)c1ccc(C(=O)Nc2cc(F)ccc2F)s1,≥ 40 µM
14,O=C(Nc1ccc(-n2cncn2)cc1)c1ccc(C(=O)NC2CCNCC2)s1,≥ 40 µM
15,O=C(Nc1ccc(-n2cncn2)cc1)c1ccc(C(=O)Nc2cc(-c3ccco3)n[nH]2)s1,≥ 40 µM
16,COc1ccc(NC(=O)c2ccc(C(=O)Nc3ccc(-n4cncn4)cc3F)s2)c(C)c1,≥ 40 µM
17,O=C(NCc1ccccn1)c1ccc(C(=O)Nc2ccc(-n3cncn3)cc2)s1,≥ 40 µM
18,O=C(NC[C@@H]1CCNC1)c1ccc(C(=O)Nc2ccc(-n3cncn3)cc2)s1,≥ 40 µM
19,COc1ccc(NC(=O)c2ccc(C(=O)Nc3ccc(N4CCOCC4)cc3)s2)c(C)c1,≥ 40 µM
20,O=C(Nc1ccc(-n2cncn2)cc1)c1ccc(C(=O)Nc2ccccc2Cl)s1,≥ 40 µM
21,O=C(Nc1ccc(-n2cncn2)cc1)c1ccc(C(=O)N[C@@H]2CC3CCC2C3)s1 (some centres undefined),≥ 40 µM
22,O=C(Nc1ccc(-n2cncn2)cc1)c1ccc(C(=O)NC2CCCCC2)s1,≥ 40 µM

row,SMILES,IC50
1,COc1ccc(C(=O)Nc2ccc(C(=O)N3CCC(c4ccccn4)C3)s2)c(C)c1 (centres undefined),≥ 40 µM
2,Nc1ccc(CNC(=O)c2ccc(C(=O)Nc3ccc(-n4cncn4)cc3)s2)cn1,≥ 40 µM
3,O=C(Nc1ccc(-n2cncn2)cc1)c1ccc(C(=O)NC2CC2)s1,≥ 40 µM
4,O=C(Nc1ccc(C(=O)Nc2ccc(-n3cncn3)cc2)s1)c1ccncc1,≥ 40 µM
5,COc1ccc(NC(=O)c2ccc(C(=O)Nc3ccc(Cn4ccnc4)cc3)s2)c(C)c1,≥ 40 µM
6,Cn1nc(-c2ccc(Cl)cc2)cc1NC(=O)c1ccc(C(=O)Nc2ccc(-n3cncn3)cc2)s1,≥ 40 µM
7,O=C(Nc1ccc(-n2cncn2)cc1)c1ccc(C(=O)N2CCOCC2)s1,≥ 40 µM
8,COc1ccc(C(=O)Nc2ccc(C(=O)Nc3ccc(-n4cncn4)cc3)o2)cc1,≥ 40 µM
9,NS(=O)(=O)c1ccc(NC(=O)c2ccc(C(=O)Nc3ccc(-n4cncn4)cc3)s2)cc1,≥ 40 µM
10,Cc1cccc(NC(=O)c2ccc(C(=O)Nc3ccc(-n4cncn4)cc3)s2)n1,≥ 40 µM
11,COc1ccc(NC(=O)c2ccc(C(=O)Nc3ccc4c(c3)OCO4)s2)c(C)c1,≥ 40 µM
12,O=C(Nc1ccc(-n2cncn2)cc1)c1ccc(C(=O)Nc2ccccn2)s1,≥ 40 µM
13,COc1ccc(NC(=O)c2ccc(C(=O)Nc3ccc(-c4nnn[nH]4)cc3)s2)c(C)c1,≥ 40 µM
14,O=C(Nc1ccc(C(=O)Nc2ccc(-n3cncn3)cc2)o1)c1ccccc1,≥ 40 µM
15,COc1ccc(NC(=O)c2ccc(C(=O)Nc3ccc4scnc4c3)s2)c(C)c1,≥ 40 µM
16,COc1ccc(NC(=O)c2ccc(C(=O)Nc3ccc(N(C)C)cc3)s2)c(C)c1,≥ 40 µM
17,COc1ccc(C(=O)Nc2ccc(C(=O)Nc3ccc(-n4ccnc4)cc3)o2)c(C)c1,≥ 40 µM
18,CC(C)[C@@H](CO)NC(=O)c1ccc(C(=O)Nc2ccc(-n3cncn3)cc2)s1,≥ 40 µM
19,CN1CCN(c2ccccc2NC(=O)c2ccc(C(=O)Nc3ccc(-n4cncn4)c(F)c3)s2)CC1,≥ 40 µM
20,O=C(Nc1ccc(-n2cncn2)cc1)c1ccc(C(=O)N2CCCC2c2cccnc2)s1 (centres undefined),≥ 40 µM
21,O=C(Nc1ccc(-n2cncn2)c(F)c1)c1ccc(C(=O)Nc2ccccc2COc2ccccc2)s1,≥ 40 µM
22,O=C(Nc1ccc(-n2cncn2)cc1)c1ccc(C(=O)N[C@@H]2CCNC2)s1,≥ 40 µM

row,SMILES,IC50
1,COc1ccc(NC(=O)c2ccc(C(=O)Nc3ccc4ncccc4c3)s2)c(C)c1,≥ 40 µM
2,Cc1ccccc1C(=O)Nc1ccc(C(=O)Nc2ccc(-n3cncn3)cc2)o1,≥ 40 µM
3,COc1ccc(C(=O)Nc2ccc(C(=O)N3CCC(Oc4cnccn4)CC3)o2)c(C)c1,≥ 40 µM
4,O=C(Nc1ccc(-n2cncn2)cc1)c1ccc(NC(=O)C2CCCCC2)o1,≥ 40 µM
5,COc1ccc(C(=O)Nc2ccc(C(=O)N3CCC(c4ccccn4)C3)o2)c(C)c1 (centres undefined),≥ 40 µM
6,O=C(Nc1ccc(-n2cncn2)c(F)c1)c1ccc(C(=O)Nc2ccccc2C(F)(F)F)s1,1 to 40 µM
7,O=C(NCc1ccncc1)c1ccc(C(=O)Nc2ccc(-n3cncn3)cc2)s1,≥ 40 µM
8,COc1ccccc1NC(=O)c1ccc(C(=O)Nc2ccc(-n3cncn3)c(F)c2)s1,≥ 40 µM
9,COc1ccc(NC(=O)c2ccc(C(=O)Nc3ccc(OCCN(C)C)cc3)s2)c(C)c1,≥ 40 µM
10,O=C(Nc1ccc(-n2cncn2)c(F)c1)c1ccc(C(=O)N2CCOCC2)o1,≥ 40 µM
11,O=C(Nc1ccc(-n2cncn2)c(F)c1)c1ccc(C(=O)Nc2ccccc2N2CCOCC2)s1,≥ 40 µM
12,Cc1cc(C)nc(NC(=O)c2ccc(C(=O)Nc3ccc(-n4cncn4)cc3)s2)c1,≥ 40 µM
13,O=C(Nc1ccc(-n2cncn2)c(F)c1)c1ccc(C(=O)Nc2ccccc2OCc2ccccc2)s1,≥ 40 µM
14,CN1CCC(NC(=O)c2ccc(C(=O)Nc3ccc(-n4cncn4)c(F)c3)o2)CC1,≥ 40 µM
15,O=C(Nc1ccc(-n2cncn2)cc1)c1ccc(C(=O)N2CCCC(c3ccccc3)C2)s1 (centres undefined),≥ 40 µM
16,COC[C@H](C)NC(=O)c1ccc(C(=O)Nc2ccc(-n3cncn3)cc2)s1,≥ 40 µM
17,COc1ccc(NC(=O)c2ccc(C(=O)Nc3ccc(C(N)=O)cc3)s2)c(C)c1,≥ 40 µM
18,O=C(NC[C@H](O)c1ccccc1)c1ccc(C(=O)Nc2ccc(-n3cncn3)cc2)s1,≥ 40 µM
19,COc1ccc(NC(=O)c2ccc(C(=O)Nc3ccc4sc(SC)nc4c3)s2)c(C)c1,≥ 40 µM
20,O=C(Nc1ccc(-n2cncn2)cc1)c1ccc(C(=O)N[C@@H]2CCc3ccccc32)s1,≥ 40 µM
21,COc1ccc(NC(=O)c2ccc(C(=O)N3CCC(c4ccncc4)C3)s2)c(C)c1 (centres undefined),1 to 40 µM
22,COc1ccc(NC(=O)c2ccc(C(=O)Nc3ccc(-n4cncn4)cc3)s2)cc1OC,≥ 40 µM

# Other lines, results leading:
row,IC50,SMILES
1,≤ 1 µM,Cc1cc(N2CCN(C)CC2)ccc1NC(=O)c1ccc(C(=O)Nc2ccc(-n3cncn3)cc2)s1
2,1 to 40 µM,COc1ccc(NC(=O)c2ccc(C(=O)N3CCC(c4ccccn4)C3)s2)c(C)c1 (centres undefined)
3,≤ 1 µM,COc1ccc(NC(=O)c2ccc(C(=O)Nc3ccc(-n4cncn4)c(F)c3)o2)c(C)c1
4,1 to 40 µM,Cc1cc(CN(C)C)ccc1NC(=O)c1ccc(C(=O)Nc2ccc(-n3cncn3)cc2)s1
5,1 to 40 µM,O=C(NCCN1CCCC1)c1ccc(C(=O)Nc2ccc(-n3cncn3)cc2)s1
6,1 to 40 µM,CNCc1ccc(NC(=O)c2ccc(C(=O)Nc3ccc(-n4cncn4)c(F)c3)s2)c(C)c1
7,≤ 1 µM,COc1ccc(C(=O)Nc2ccc(C(=O)Nc3ccc(-n4cncn4)c(F)c3)s2)c(C)c1
8,≤ 1 µM,COc1ccc(NC(=O)c2ccc(C(=O)Nc3ccc(-c4nc[nH]n4)c(F)c3)s2)c(C)c1
9,≤ 1 µM,COc1ccc(NC(=O)c2ccc(C(=O)Nc3ccc(-n4cncn4)cc3)o2)cc1
10,1 to 40 µM,COc1ccc(NC(=O)c2ccc(C(=O)N3CCC(Oc4cnccn4)CC3)s2)c(C)c1
11,1 to 40 µM,O=C(NCc1ccccc1)c1ccc(C(=O)Nc2ccc(-n3cncn3)cc2)s1
12,≤ 1 µM,Cc1cc(CN2CCN(C)CC2)ccc1NC(=O)c1ccc(C(=O)Nc2ccc(-n3cncn3)cc2)s1
13,≤ 1 µM,Cc1ccccc1NC(=O)c1ccc(C(=O)Nc2ccc(-n3cncn3)cc2)s1
14,≤ 1 µM,Cc1cc(N2CCOCC2)ccc1NC(=O)c1ccc(C(=O)Nc2ccc(-n3cncn3)c(F)c2)s1
15,≤ 1 µM,Cc1cc(CN2CCN(C)CC2)ccc1NC(=O)c1ccc(C(=O)Nc2ccc(-n3cncn3)c(F)c2)s1
16,1 to 40 µM,O=C(Nc1ccc(-n2cncn2)cc1)c1ccc(C(=O)NC2CCCC2)s1
17,1 to 40 µM,C[C@@H](NC(=O)c1ccc(C(=O)Nc2ccc(-n3cncn3)c(F)c2)o1)C1CCCCC1

row,IC50,SMILES
1,1 to 40 µM,O=C(NCCc1cccnc1)c1ccc(C(=O)Nc2ccc(-n3cncn3)cc2)s1
2,1 to 40 µM,Cc1ccsc1CNC(=O)c1ccc(C(=O)Nc2ccc(-n3cncn3)cc2)s1
3,≤ 1 µM,Cc1cc(OCCN2CCOCC2)ccc1NC(=O)c1ccc(C(=O)Nc2ccc(-n3cncn3)cc2)s1
4,≤ 1 µM,O=C(Nc1ccc(-n2cncn2)c(F)c1)c1ccc(C(=O)Nc2ccccc2Cl)s1
5,≤ 1 µM,Cc1cc(O)ccc1NC(=O)c1ccc(C(=O)Nc2ccc(-n3cncn3)cc2)s1
6,1 to 40 µM,COc1ccc(C(=O)Nc2ccc(C(=O)Nc3ccc(-n4cncn4)cc3)s2)cc1
7,≤ 1 µM,Cc1cc(Cn2ccnc2)ccc1NC(=O)c1ccc(C(=O)Nc2ccc(-n3cncn3)c(F)c2)s1
8,≤ 1 µM,CN(C(=O)c1ccc(C(=O)Nc2ccc(-n3cncn3)cc2)s1)C1CCCCC1
9,1 to 40 µM,Cn1nc(C2CC2)cc1NC(=O)c1ccc(C(=O)Nc2ccc(-n3cncn3)cc2)s1
10,≤ 1 µM,Cc1cc(CN2CCOCC2)ccc1NC(=O)c1ccc(C(=O)Nc2ccc(-n3cncn3)c(F)c2)s1
11,1 to 40 µM,COc1ccc(N(C)C(=O)c2ccc(C(=O)Nc3ccc(-n4cncn4)cc3)s2)cc1
12,≤ 1 µM,COc1ccc(C(=O)Nc2ccc(C(=O)Nc3ccc(-c4nc[nH]n4)c(F)c3)s2)c(C)c1
13,≤ 1 µM,Cc1ccccc1C(=O)Nc1ccc(C(=O)Nc2ccc(-n3cncn3)cc2)s1
14,≤ 1 µM,O=C(Nc1ccc(-n2cncn2)cc1)c1ccc(NC(=O)C2CCCCC2)s1
15,≤ 1 µM,Cc1cc(N2CCNCC2)ccc1NC(=O)c1ccc(C(=O)Nc2ccc(-n3cncn3)cc2)s1
16,≤ 1 µM,COc1ccc(NC(=O)c2ccc(C(=O)Nc3ccc(-n4cncn4)cc3)o2)c(C)c1
